# From patent US20070060586A1, “Nitrooxyderivatives of antihypertensive drugs” (priority 2003, published 2007)
# Where a name gives a salt, the structure may show the parent alone.
# Test system: PC12 cells
# Experiment: Measurements of cGMP in rat PC12 cell line (intracellular cGMP formation, enzyme immunoassay)
# Type: cell-based
# Details: for EC50: PC-12, 0.75 h
# Experimental: Measurements of CGMP in Rat PC12 Cell Line.
# cGMP contributes to the function and interaction of several vascular cell types and its dysfunction is involved in major cardiovascular diseases such as hypertension, diabetic complications, atherosclerosis, and tissue infarction. Therefore the extent of cGMP formation elicited by the compounds of the inventions was evaluated in the rat pheochromocytoma (PC12) cell line.
# Cells were maintained at 37° C. in DMEM medium enriched with 10% horse serum and 5% foetal bovine serum under 5% CO2 atmosphere. At the time of experiments the cells were washed once with Hank's Balanced Salt Solution (HBSS) supplemented with 0.05% ascorbic acid and preincubated in the same buffer for 10 min in a floating water bath. After the preincubation step, cells were exposed for additional 45 min to either control conditions or increasing concentrations of test compounds ranging from 0.1 to 25 μM, in the presence of the phosphodiesterase inhibitor, IBMX (100 μM) and the NO-independent activator of soluble guanylyl cyclase, YC-1 (20 μM). The reaction was terminated by the removal of the incubating buffer and consecutive addition of 100 μl of absolute ethanol. The organic extracts were then evaporated to dryness and the residues dissolved in aqueous buffer for quantitative determination of intracellular cGMP levels using the cGMP enzyme immunoassay kit.
# The obtained results reported in Table 1 are expressed as EC50 (μM) and efficacy Emax (% of vehicle). As shown in the table the nitroderivatives of timolol elicited consistent increase of intracellular cGMP formation in PC12 cell line.
# [1] = 45 min exposure, 0.1 to 25 μM, in the presence of IBMX (100 μM) and YC-1 (20 μM)
"EC50, cGMP formation in PC12 cells [1]",EC50 [1] [µM],Compound,"Emax (% of vehicle), cGMP formation in PC12 cells [1]",increase of intracellular cGMP formation in PC12 cell line (in words) (summary statement to Table 1)
Not effective,–,"CC(C)(C)NC[C@H](O)COc1nsnc1N1CCOCC1 [Timolol, reference compound]",Not effective,this effect was not shared
–,18.5,"CC(C)(C)N(C[C@H](O)COc1nsnc1N1CCOCC1)C(=O)c1ccc(CO[N+](=O)[O-])cc1 [Compound of example 3, (S)-1-[(1,1-dimethylethyl)[(4-nitrooxymethyl)benzoyl]amino]-3-[[4-(4-morpholinyl)-1,2,5-thiadiazol-3-yl]oxy]-2-propanol]",866 % of vehicle,–
–,12.6,"CC(C)(C)NC[C@@H](COc1nsnc1N1CCOCC1)OC(=O)c1ccc(CO[N+](=O)[O-])cc1 [Compound of example 1, 4-(Nitrooxymethyl)benzoic acid (S)-1-[(1,1-dimethylethyl)amino]-3-[[4-(4-morpholinyl)-1,2,5thiadiazol-3-yl]oxy]-2-propanoate maleate salt]",–,–

# The next lines start with the compound.
Compound,"EC50, cGMP formation in PC12 cells [1]",EC50 [1] [µM],"Emax (% of vehicle), cGMP formation in PC12 cells [1]",increase of intracellular cGMP formation in PC12 cell line (in words) (summary statement to Table 1)
"CC(C)(C)NCC(COc1nsnc1N1CCOCC1)OC(=O)c1ccc(CO[N+](=O)[O-])cc1.O=C(O)/C=C\C(=O)O [Compound of example 1, 4-(Nitrooxymethyl)benzoic acid (S)-1-[(1,1-dimethylethyl)amino]-3-[[4-(4-morpholinyl)-1,2,5thiadiazol-3-yl]oxy]-2-propanoate maleate salt]",–,–,796 % of vehicle,–
"CC(C)(C)N(CC(COc1nsnc1N1CCOCC1)OC(=O)c1ccc(CO[N+](=O)[O-])cc1)C(=O)c1ccc(CO[N+](=O)[O-])cc1 [Compound of example 2, 4-(Nitrooxymethyl)benzoic acid (S)-1-[(1,1-dimethylethyl)[(4-nitrooxymethyl)benzoyl]amino]-3-[[4-(4-morpholinyl)-1,2,5-thiadiazol-3-yl]oxy]-2-propanoate]",–,1.3,480 % of vehicle,–
